Measured values taken from PubChem BioAssay AID248 (DTP/NCI, 2004).
Where “and” joins values, the source holds several entries; their conditions need not be identical. Equal entries are not always repeated. Toxic doses and inconclusive results are not listed. Cut-off read from the data, not from the text of the source: active = T/C of 150% or more; inactive = T/C below 125%.

Test system: L1210 leukemia ip in BDF1 mice, survival T/C
Experiment: NCI In Vivo Anticancer Drug Screen. Data for tumor model L1210 Leukemia (intraperitoneal) in B6D2F1 (BDF1) mice
Settings: endpoint: mean survival time, higher = longer survival
How it was run: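 Each compound was tested against a transplantable tumor grown in mice. The endpoint was survival, with treated animals benchmarked against vehicle controls as a simple ratio.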

[1] = dose: 100.0 mg/kg/injection, schedule: Q04DX002 (ip), vehicle: Klucel (hydroxypropylcellulose) (HPC)
[2] = dose: 200.0 mg/kg/injection, schedule: Q04DX002 (ip), vehicle: Klucel (hydroxypropylcellulose) (HPC)
[3] = dose: 400.0 mg/kg/injection, schedule: Q04DX002 (ip), vehicle: Klucel (hydroxypropylcellulose) (HPC)
[4] = dose: 100.0 mg/kg/injection, schedule: Q04DX002 (ip), vehicle: saline with Tween-80
[5] = dose: 200.0 mg/kg/injection, schedule: Q04DX002 (ip), vehicle: saline with Tween-80
[6] = dose: 400.0 mg/kg/injection, schedule: Q04DX002 (ip), vehicle: saline with Tween-80
[7] = dose: 100.0 mg/kg/injection, schedule: Q01DX001 (ip), vehicle: carboxymethylcellulose (CMC)
[8] = dose: 200.0 mg/kg/injection, schedule: Q01DX001 (ip), vehicle: carboxymethylcellulose (CMC)
[9] = dose: 400.0 mg/kg/injection, schedule: Q01DX001 (ip), vehicle: carboxymethylcellulose (CMC)

Measured: T/C

Cc1ccc([N+](=O)[O-])cc1NC(=O)Cc1ccccc1
inactive: [1] 101 % of control | [2] 93 % of control | [3] 93 % of control

CCOC(=O)c1ccc(Nc2nnc(-c3ccc(OC)cc3OC)s2)cc1
inactive: [4] 104 % of control | [5] 104 % of control | [6] 101 % of control

CC(C)CCC[C@@H](C)[C@H]1CC[C@H]2[C@@H]3C[C@@H](Br)[C@@]4(Br)C[C@@H](Cl)CC[C@]4(C)[C@H]3CC[C@]12C
inactive: dose: 50.0 mg/kg/injection, schedule: Q01DX001 (ip), vehicle: other 102 % of control | dose: 100.0 mg/kg/injection, schedule: Q01DX001 (ip), vehicle: other 107 % of control | dose: 200.0 mg/kg/injection, schedule: Q01DX001 (ip), vehicle: other 96 % of control | dose: 400.0 mg/kg/injection, schedule: Q01DX001 (ip), vehicle: other 96 % of control

O=[N+]([O-])c1cc(Cl)c(Cl)cc1N1CCCC1
inactive: dose: 100.0 mg/kg/injection, schedule: Q04DX003 (ip), vehicle: Klucel (hydroxypropylcellulose) (HPC) 93 % of control | dose: 200.0 mg/kg/injection, schedule: Q04DX003 (ip), vehicle: Klucel (hydroxypropylcellulose) (HPC) 88 % of control | dose: 400.0 mg/kg/injection, schedule: Q04DX003 (ip), vehicle: Klucel (hydroxypropylcellulose) (HPC) 101 % of control

O=C1CC(c2ccccc2)(c2ccccc2)c2ccccc21
inactive: dose: 25.6 mg/kg/injection, schedule: Q04DX002 (ip), vehicle: saline with Tween-80 98 % of control | dose: 64.0 mg/kg/injection, schedule: Q04DX002 (ip), vehicle: saline with Tween-80 102 % of control | dose: 160.0 mg/kg/injection, schedule: Q04DX002 (ip), vehicle: saline with Tween-80 91 % of control | [6] 96 % of control

Oc1ccccc1C1N(Cc2ccc(N(CCCl)CCCl)cc2Cl)CCCN1Cc1ccc(N(CCCl)CCCl)cc1Cl
inactive: dose: 50.0 mg/kg/injection, schedule: Q01DX001 (ip), vehicle: carboxymethylcellulose (CMC) 96 % of control | [7] 90 % of control | [8] 94 % of control | [9] 102 % of control

COC(=O)C1ON(C(=O)c2ccccc2)C(C)C(O)C1OC=O (configuration not stated)
inactive: [1] 95 % of control | [2] 95 % of control | [3] 103 % of control

CC[CH2][Sn]([CH2]CC)([CH2]CC)[O]C(=O)CN1CCC[CH]([Hg][c]2cccnc2)C1 (configuration not stated)
inactive: dose: 50.0 mg/kg/injection, schedule: Q01DX001 (ip), vehicle: saline 98 % of control | dose: 100.0 mg/kg/injection, schedule: Q01DX001 (ip), vehicle: saline 109 % of control | dose: 200.0 mg/kg/injection, schedule: Q01DX001 (ip), vehicle: saline 104 % of control

CC(C)N(CCC#N)C(=S)Nc1cccc2ccccc12
inactive: dose: 100.0 mg/kg/injection, schedule: Q01DX009 (ip), vehicle: Klucel (hydroxypropylcellulose) (HPC) 93 % of control | dose: 200.0 mg/kg/injection, schedule: Q01DX009 (ip), vehicle: Klucel (hydroxypropylcellulose) (HPC) 87 % of control | dose: 400.0 mg/kg/injection, schedule: Q01DX009 (ip), vehicle: Klucel (hydroxypropylcellulose) (HPC) 102 % of control

CC(C)=CC(=O)OCC[N+](C)(C)C
inactive: dose: 3.12 mg/kg/injection, schedule: Q01DX009 (ip), vehicle: saline 104 % of control | dose: 6.25 mg/kg/injection, schedule: Q01DX009 (ip), vehicle: saline 98 % of control | dose: 12.5 mg/kg/injection, schedule: Q01DX009 (ip), vehicle: saline 102 % of control and 109 % of control

CSc1nc(-c2cccs2)cc(C(F)(F)F)n1
inactive: dose: 100.0 mg/kg/injection, schedule: Q04DX003 (ip), vehicle: gum acacia 97 % of control | dose: 200.0 mg/kg/injection, schedule: Q04DX003 (ip), vehicle: gum acacia 100 % of control | dose: 400.0 mg/kg/injection, schedule: Q04DX003 (ip), vehicle: gum acacia 102 % of control

Oc1ccc(Br)cc1C=Nc1ccccc1
inactive: [4] 96 % of control | [5] 104 % of control | [6] 100 % of control

CC(=O)OCCC/C(=C\c1ccc2ccccc2c1)[N+](=O)[O-]
inactive: [7] 98 % of control | [8] 93 % of control | [9] 89 % of control
